Source: a flash point compilation (Sun et al. 2020)
Where a name gives a salt, the structure may show the parent alone.

| Structure (SMILES) | flash point |
| --- | --- |
| CCOP(=S)(Oc1ccc([N+](=O)[O-])cc1)c1ccccc1 (stereo not given) | 30.00 °C |
| O=C=Nc1ccccc1 [isocyanatobenzene] | 56.00 °C |
| N#CCCCl [3-chloropropanenitrile] | 76.00 °C |
| C=C[Si](Cl)(Cl)Cl [trichloro(ethenyl)silane] | 21.00 °C |
| CC(C)c1ccc(NC(=O)N(C)C)cc1 [1,1-dimethyl-3-(4-propan-2-ylphenyl)urea] | 100.00 °C |
| CC(C)C(=O)O.CC(C)C(O)C(C)(C)CO (stereo not given) [2-methylpropanoic acid;2,2,4-trimethylpentane-1,3-diol] | 120.00 °C |
| O=C1CCCN1 [pyrrolidin-2-one] | 129.00 °C |
| C=C(Cl)Cl [1,1-dichloroethene] | -10.00 °C |
| Cc1cccc(N)c1 [3-methylaniline] | 86.00 °C |
| ClCCCCCCCl [1,6-dichlorohexane] | 74.00 °C |
| [CH3][Pb]([CH3])([CH3])[CH3] [tetramethylplumbane] | 38.00 °C |
| CCCCC(=O)O [pentanoic acid] | 89.00 °C |
| COc1ccccc1N [2-methoxyaniline] | 99.00 °C |
| CC[N+](=O)[O-] [1-nitroethane] | 41.00 °C |
| CC(Cl)CCl (stereo not given) [1,2-dichloropropane] | 16.00 °C |
| COc1nc(C)nc(NC(=O)NS(=O)(=O)c2ccccc2CCC(F)(F)F)n1 | 100.00 °C |
| O=C(Cl)c1ccccc1 [benzoyl chloride] | 72.00 °C |
| CCCC#N [butanenitrile] | 17.00 °C |
| O=Cc1ccc(Cl)cc1Cl [2,4-dichlorobenzaldehyde] | 135.00 °C |
| C=CC(N)=O [prop-2-enamide] | 138.00 °C |
| OCC1CO1 (stereo not given) [oxiran-2-ylmethanol] | 72.00 °C |
| Cl.Nc1ccccc1 [aniline;hydrochloride] | 193.00 °C |
| Cc1ccc(N)cc1 [4-methylaniline] | 87.00 °C |

| Structure (SMILES) | flash point |
| --- | --- |
| Cc1cccc(CBr)c1 [1-(bromomethyl)-3-methylbenzene] | 82.00 °C |
| CCCCC#N [pentanenitrile] | 41.00 °C |
| O=C(Cl)C(Cl)Cl [2,2-dichloroacetyl chloride] | 66.00 °C |
| O=CC(Cl)Cl [2,2-dichloroacetaldehyde] | 60.00 °C |
| c1ccc(Nc2ccc(Nc3ccccc3)cc2)cc1 [1-N,4-N-diphenylbenzene-1,4-diamine] | 204.00 °C |
| CN(C)C(=S)[S-].CN(C)C(=S)[S-].[Zn+2] [zinc;N,N-dimethylcarbamodithioate] | 93.00 °C |
| O=C1OC(=O)c2c(Cl)c(Cl)c(Cl)c(Cl)c21 [4,5,6,7-tetrachloro-2-benzofuran-1,3-dione] | 362.00 °C |
| Nc1cccc(Cl)c1 [3-chloroaniline] | 124.00 °C |
| C=C1CCC2CC1C2(C)C (stereo not given) [6,6-dimethyl-2-methylidenebicyclo[3.1.1]heptane] | 31.00 °C |
| C#CCN1CC(=O)N(COC(=O)C2C(C=C(C)C)C2(C)C)C1=O (stereo not given) | 110.00 °C |
| CC(Cl)Cl [1,1-dichloroethane] | -6.00 °C |
| CC(C)OC(=O)Cl [propan-2-yl carbonochloridate] | 16.00 °C |
| CC(C)CON=O [2-methylpropyl nitrite] | -23.00 °C |
| COP(=S)(OC)Oc1ccc(SC)c(C)c1 | 170.00 °C |
| CC(C)(OO)c1ccccc1 [2-hydroperoxypropan-2-ylbenzene] | 57.00 °C |
| CCC(C)Br (stereo not given) [2-bromobutane] | 21.00 °C |
| CN(CCO)CCO [2-[2-hydroxyethyl(methyl)amino]ethanol] | 127.00 °C |
| Clc1ccc(-c2ccc(Cl)c(Cl)c2Cl)c(Cl)c1Cl [1,2,3-trichloro-4-(2,3,4-trichlorophenyl)benzene] | 141.00 °C |
| CCCO [propan-1-ol] | 25.00 °C |
| CC(C)CCCCCCCOP(=S)([S-])OCCCCCCCC(C)C.CC(C)CCCCCCCOP(=S)([S-])OCCCCCCCC(C)C.[Zn+2] | 280.00 °C |
| CC1CCC(O)CC1 (stereo not given) [4-methylcyclohexan-1-ol] | 70.00 °C |
| CC(C)C=O [2-methylpropanal] | -40.00 °C |
| CN(C)C(=O)/N=N/C(=O)N(C)C [(3E)-3-(dimethylcarbamoylimino)-1,1-dimethylurea] | 40.00 °C |

More lines, now with the values ahead:

| flash point | Structure (SMILES) |
| --- | --- |
| 82.00 °C | Cc1c(Cl)cccc1Cl [1,3-dichloro-2-methylbenzene] |
| 35.00 °C | CCOCCOCC [1,2-diethoxyethane] |
| 130.00 °C | O=C1CCc2ccccc2O1 [3,4-dihydrochromen-2-one] |
| 153.00 °C | Oc1cccc2ccccc12 [naphthalen-1-ol] |
| 138.00 °C | CC(=O)OCC(COC(C)=O)OC(C)=O [2,3-diacetyloxypropyl acetate] |
| 80.00 °C | O=C(OOC(=O)c1ccccc1)c1ccccc1 [benzoyl benzenecarboperoxoate] |
| 196.00 °C | CCCCCCCCOP(=O)(O)OCCCCCCCC [dioctyl hydrogen phosphate] |
| 191.00 °C | O=C(O)CCCCC(=O)O [hexanedioic acid] |
| 155.00 °C | CCOC(=O)CC(O)(CC(=O)OCC)C(=O)OCC [triethyl 2-hydroxypropane-1,2,3-tricarboxylate] |
| 93.00 °C | O=COCCOC=O [2-formyloxyethyl formate] |
| 79.00 °C | NCCCO [3-aminopropan-1-ol] |
| 85.00 °C | Cc1ccc(C#N)cc1 [4-methylbenzonitrile] |
| 69.00 °C | CC(C)CCCCCOC(=O)COc1cc(Cl)c(Cl)cc1Cl [6-methylheptyl 2-(2,4,5-trichlorophenoxy)acetate] |
| 89.00 °C | CCCCCCCCCC(C)=O [undecan-2-one] |
| 66.00 °C | CC(=O)OCc1ccco1 [furan-2-ylmethyl acetate] |
| 72.00 °C | O=[N+]([O-])c1cccc(I)c1 [1-iodo-3-nitrobenzene] |
| 52.00 °C | CCCC[Si](Cl)(Cl)Cl [butyl(trichloro)silane] |
| 68.00 °C | CCCC=C(C=O)CC [2-ethylhex-2-enal] |
| 105.00 °C | Cc1cccc2cccnc12 [8-methylquinoline] |
| 18.00 °C | C=COCCOC [1-ethenoxy-2-methoxyethane] |
| 31.00 °C | CCCCCCCCC [nonane] |
| 180.00 °C | O=C(OCc1ccccc1)c1ccccc1O [benzyl 2-hydroxybenzoate] |
| 235.00 °C | CCCCCCCCCCOC(=O)c1ccccc1C(=O)OCCCCCCCC [2-O-decyl 1-O-octyl benzene-1,2-dicarboxylate] |
| 104.00 °C | CC(C)c1ccccc1O [2-propan-2-ylphenol] |
| 91.00 °C | Cl[Si](Cl)(Cl)c1ccccc1 [trichloro(phenyl)silane] |
| 78.00 °C | OCC(Cl)Cl [2,2-dichloroethanol] |
| 76.00 °C | CCOC(=O)C(=O)OCC [diethyl oxalate] |

| flash point | Structure (SMILES) |
| --- | --- |
| 61.00 °C | CCC(C)C(C)CO (stereo not given) [2,3-dimethylpentan-1-ol] |
| 100.00 °C | O=C([O-])CN(CCO)CCN(CC(=O)[O-])CC(=O)[O-].[Na+].[Na+].[Na+] |
| 130.00 °C | c1ccc(Cc2ccccc2)cc1 [benzylbenzene] |
| 110.00 °C | CCOCCOCCOC(C)=O [2-(2-ethoxyethoxy)ethyl acetate] |
| 190.00 °C | O=C(OCC1CO1)C1CCCCC1C(=O)OCC1CO1 (stereo not given) [bis(oxiran-2-ylmethyl) cyclohexane-1,2-dicarboxylate] |
| 68.00 °C | CCc1ccc(C)nc1 [5-ethyl-2-methylpyridine] |
| 153.00 °C | c1ccc(Nc2ccccc2)cc1 [N-phenylaniline] |
| 57.00 °C | O=CC1CC=CCC1 (stereo not given) [cyclohex-3-ene-1-carbaldehyde] |
| 97.00 °C | C=CC(=O)OCCCO [3-hydroxypropyl prop-2-enoate] |
| 125.00 °C | O=C1CCCCCN1 [azepan-2-one] |
| 171.00 °C | CC(C)(C)c1cc(O)ccc1O [2-tert-butylbenzene-1,4-diol] |
| 163.00 °C | CC(=O)CC(=O)Nc1ccccc1 [3-oxo-N-phenylbutanamide] |
| 200.00 °C | CCCCCCCCCCCCCCCCCCO [octadecan-1-ol] |
| 117.00 °C | NCc1cccc(CN)c1 [[3-(aminomethyl)phenyl]methanamine] |
| 193.00 °C | Oc1cc(O)c2cc(O)c(-c3cc(O)c(O)c(O)c3)[o+]c2c1.[Cl-] [2-(3,4,5-trihydroxyphenyl)chromenylium-3,5,7-triol;chloride] |
| -104.00 °C | CCC [propane] |
| 79.00 °C | CC(N)c1ccccc1 (stereo not given) [1-phenylethanamine] |
| 61.00 °C | CSCCC=O [3-methylsulfanylpropanal] |
| 112.00 °C | CC1CCC(CO)CC1 (stereo not given) [(4-methylcyclohexyl)methanol] |
| 52.00 °C | CCCCCCC(C)=O [octan-2-one] |
| 49.00 °C | CCCC(=O)CCC [heptan-4-one] |
| 57.00 °C | CCCCCOC(=O)CCC [pentyl butanoate] |
| 141.00 °C | CCCCCCCCCCCCCCCCN [hexadecan-1-amine] |
| 104.00 °C | CCOC(=O)/C=C/C(=O)OCC [diethyl (E)-but-2-enedioate] |
| 46.00 °C | CCOC(=O)C(C)O (stereo not given) [ethyl 2-hydroxypropanoate] |
| -7.00 °C | CCC(C)(C)OC [2-methoxy-2-methylbutane] |
| 174.00 °C | CC1(C)C(=O)N(Cl)C(=O)N1Cl [1,3-dichloro-5,5-dimethylimidazolidine-2,4-dione] |
